According to patent publication US12194007B2, “Pharmaceutical composition for preventing or treating cancer, comprising gossypol, phenformin, and anticancer agent” (National Cancer Center, priority 2018, dated 2025):

Experiments:
Assay type in all cases: cell-based
[1] = test system: SK-OV-3 or OVCAR3 cell line; assay: SRB cell proliferation assay, ovarian cancer cell lines; conditions: for synergistic effect of anticancer action when mixed with gossypol and phenformin: ovarian cancer, paclitaxel 50 nM or irinotecan 0.5 μM + gossypol 5 μM + phenformin 100 μM
[2] = test system: PC3 cell line or DU145 cell line; assay: SRB cell proliferation assay, prostate cancer cell lines; conditions: docetaxel 50 nM or irinotecan 0.5 μM mixed with gossypol 5 μM and phenformin 100 μM (Tables 20-21, FIGS. 7B, 7C)
[3] = test system: UACC62 cell line or an A375 cell line; assay: SRB cell proliferation assay, melanoma cell lines; conditions: for effect of inhibiting cell proliferation in the triple drug treatment group: cisplatin or oxaliplatin 10 μM mixed with gossypol 5 μM and phenformin 100 μM (Tables 5-6, FIGS. 2B, 2C)
[4] = test system: A549 cell line or H522 cell line; assay: SRB cell proliferation assay, non-small cell lung cancer cell lines; conditions: for effect of inhibiting cell proliferation in the triple drug treatment group: cisplatin 20 μM or 5-FU 5 μM mixed with gossypol 5 μM and phenformin 100 μM (Tables 11-12, FIGS. 4B, 4C); for synergistic effect of anticancer action when mixed with gossypol and phenformin: lung cancer (NSCLC), irinotecan 1 μM, cisplatin 20 μM or 5-FU 5 μM + gossypol 5 μM + phenformin 100 μM
[5] = test system: BT549 cell line or MB231 cell line; assay: SRB cell proliferation assay, breast cancer cell lines
SNU449 or Huh7 cell line = assay: SRB cell proliferation assay, liver cancer cell lines; conditions: for synergistic effect of anticancer action when mixed with gossypol and phenformin: liver cancer, cisplatin 1 μM or sorafenib 5 μM + gossypol 5 μM + phenformin 100 μM
[6] = test system: HT29 cell line or Colo205 cell line; assay: SRB cell proliferation assay, colorectal cancer cell lines; conditions: for effect of inhibiting cell proliferation in the triple drug treatment group: cisplatin or capecitabine 10 μM mixed with gossypol 2.5 μM and phenformin 75 μM (Tables 8-9, FIGS. 3B, 3C); for synergistic effect of anticancer action when mixed with gossypol and phenformin: colon cancer, irinotecan 1 μM (phenformin 50 μM) or cisplatin/capecitabine 10 μM (phenformin 75 μM) + gossypol 2.5 μM
[7] = test system: ACHN cell line or CAKI-1 cell line; assay: SRB cell proliferation assay, kidney cancer cell lines

`CC(=O)O[C@H]1C(=O)[C@@]2(C)[C@H]([C@H](OC(=O)c3ccccc3)[C@]3(O)C[C@H](OC(=O)[C@H](O)[C@@H](NC(=O)c4ccccc4)c4ccccc4)C(C)=C1C3(C)C)[C@]1(OC(C)=O)CO[C@@H]1C[C@@H]2O` [paclitaxel] was tested, and the “synergistic effect of anticancer action when mixed with gossypol and phenformin” value (“synergistic effect of anticancer action” for short) ([1]; cisplatin 1 nM) was “not exhibited” and the “effect of inhibiting cell proliferation in the triple drug treatment group” value (“effect of inhibiting cell proliferation” below) ([1]; paclitaxel 50 nM or irinotecan 0.5 μM mixed with gossypol 5 μM and phenformin 100 μM (Tables 17-18, FIGS. 6B, 6C)) was “level similar to that of the double drug treatment group”.
For `CC(=O)O[C@@]12CO[C@@H]1C[C@H](O)[C@@]1(C)C(=O)[C@H](O)C3=C(C)[C@@H](OC(=O)[C@H](O)[C@@H](NC(=O)OC(C)(C)C)c4ccccc4)C[C@@](O)([C@@H](OC(=O)c4ccccc4)[C@H]21)C3(C)C` [docetaxel], the “effect of inhibiting cell proliferation” value [2] was “level similar to that of the double drug treatment group”.
With `O=C1[O][Pt]2([NH][C@@H]3CCCC[C@H]3[NH]2)[O]C1=O` [oxaliplatin] the “effect of inhibiting cell proliferation” value [3] was “level similar to that of the double drug treatment group”.
With `N.N.[Cl][Pt][Cl]` [cisplatin] the “degree of cell proliferation with respect to the untreated control” value (“degree of cell proliferation” for short) ([1]; gossypol 5 μM, phenformin 100 μM, cisplatin 1 nM, single or double (Table 16, FIG. 6A)) was “proliferation of cancer cells could be inhibited at a significant level”, the “synergistic effect of anticancer action” value ([1]; cisplatin 1 nM) was “can exhibit a synergistic effect” and the “effect of inhibiting cell proliferation” value [4] was “level similar to that of the double drug treatment group”. For the same compound, the “synergistic effect of anticancer action” value [4] was “not exhibited”, the “synergistic effect of anticancer action” value ([5]; breast cancer, named agent + gossypol 5 μM + phenformin 100 μM (Tables 13-15)) was “not exhibited” and the “effect of inhibiting cell proliferation” value ([5]; cisplatin 1 μM or doxorubicin 1 μM mixed with gossypol 5 μM and phenformin 100 μM (Tables 14-15, FIGS. 5B, 5C)) was “level similar to that of the double drug treatment group”. The “degree of cell proliferation” value (SNU449 or Huh7 cell line; gossypol 5 μM, phenformin 100 μM, cisplatin 1 μM, single or double (Table 22, FIG. 8A)) was “proliferation of cancer cells could be inhibited at a significant level”, the “synergistic effect of anticancer action” value (SNU449 or Huh7 cell line) was “can exhibit a synergistic effect” and the “effect of inhibiting cell proliferation” value [3] was “level similar to that of the double drug treatment group”. The “synergistic effect of anticancer action” value ([3]; melanoma, vemurafenib 0.5 μM, cisplatin 10 μM or oxaliplatin 10 μM + gossypol 5 μM + phenformin 100 μM) was “not exhibited”, the “effect of inhibiting cell proliferation” value [6] was “level similar to that of the double drug treatment group” and the “synergistic effect of anticancer action” value [6] was “not exhibited”.
In the case of `O=c1[nH]cc(F)c(=O)[nH]1` [5-FU, 5-fluorouracil], the “effect of inhibiting cell proliferation” value [4] is reported as “level similar to that of the double drug treatment group” and the “synergistic effect of anticancer action” value [4] is reported as “not exhibited”.
For `CNC(=O)c1cc(Oc2ccc(NC(=O)Nc3ccc(Cl)c(C(F)(F)F)c3)cc2)ccn1` [sorafenib], the “degree of cell proliferation” value ([7]; gossypol 2.5 μM, phenformin 100 μM, sorafenib 10 μM, single, double or triple (Table 1, FIG. 1A)) was “proliferation of cancer cells could be inhibited”, the “synergistic effect of anticancer action” value ([7]; renal cell carcinoma, named agent 10 μM + gossypol 2.5 μM + phenformin 100 μM) was “can exhibit a synergistic effect” and the “synergistic effect of anticancer action” value (SNU449 or Huh7 cell line) was “not exhibited”. For the same compound, the “effect of inhibiting cell proliferation” value (SNU449 or Huh7 cell line; sorafenib 5 μM mixed with gossypol 5 μM and phenformin 100 μM (Table 23, FIG. 8B)) was “level similar to that of the double drug treatment group”.
With `CCCCCOC(=O)Nc1nc(=O)n([C@@H]2O[C@H](C)[C@@H](O)[C@H]2O)cc1F` [capecitabine] the “effect of inhibiting cell proliferation” value [6] was “level similar to that of the double drug treatment group” and the “synergistic effect of anticancer action” value [6] was “not exhibited”.
